# Test system: human microvascular pericytes (PC) on decellularized healthy lungs
# Experiment: PC on decellularized control human lung scaffolds, TGF-β1 activation with or without nintedanib: histology, α-SMA IHC, tensile testing
# Type: cell-based
# Description: Lung sections were decellularized as previously described (Sun et al., Am J Physiol Lung Cell Mol Physiol, 2014, 306:L463-475; Petersen et al., Science, 2010, 329:538-541). Briefly, the lung pieces were snap frozen, sliced to 2 mm thickness, and rinsed with PBS containing sodium nitroprusside (SNP). The slices were decellularized with 8 mM CHAPS (Sigma-Aldrich, St Louis, Mo., USA), 1M NaCl, and 25 mM EDTA at 37° C. overnight. The slices were treated with 90 U/mL benzonase nuclease (Sigma) for 1 hour and stored in PBS containing 10% penicillin/streptomycin and 2% Gentamicin at 4° C. until the time of culture. For solubilization, the tissue slices were rinsed with PBS, frozen, and lyophilized. The lyophilized pieces were ground to a fine powder using a tissue grinder and digested with 1 mg/mL pepsin (Sigma) in 0.1 M HCl for 72 hours (DeQuach et al., PLoS One, 2010, 5:e13039).
# Samples were fixed in 4% paraformaldehyde for 1 hour, dehydrated, embedded in paraffin, and sectioned into 5μm thick slices. Sections were stained with Masson's Trichrome, picrosirius red, and α-smooth muscle actin (SMA) by the Yale Histology Core Facility.
# Decellularized lung samples from control and IPF subjects, as well as polyacrylamide hydrogels of varying crosslinking density, were analyzed using an Instron 5848 with a 10N load cell. Elongation was assessed by cross-head displacement. Strips of 10 mm (length)×1 (width) mm, measured with a digital caliper were affixed to grips and pulled until failure at a strain rate of 1%/sec. For lung samples, parenchymal regions were analyzed, and the pleura was avoided. Hydration of samples with PBS was maintained before and during the mechanical conditioning. Using sample dimensions, engineering stress and strain were calculated using the following equations:
# σ=stress, F=Force, A0=initial area, ε=strain, lf=final length, l0=initial length. The Young's Modulus for the tissue was determined by dividing the engineering stress σ, by the engineering strain ε at 20% strain, within the normal range of lung inflation. Mechanical properties of the polyacrylamide hydrogels were also analyzed using a modified model of the Hertz equation using a custom made apparatus (FIG. 3) (Lauridsen et al., Technology, 2014, 2:133).
# For short term (7 day) differentiation studies, PC (passage 3-7) were seeded on healthy or IPF lung tissue slices, polyacrylamide hydrogels, or 25 mm glass coverslips (VWR) at 100×10^3 cells per sample and activated with control media (non-activated), or 1 ng/mL TGF-β1 (PeproTech, Rocky Hill, N.J., USA) for 7 days (18, 19). For bleomycin activation, the cells were activated with 1 μg/mL bleomycin sulfate (Cayman Chemical, Ann Arbor, Mich.) for 1 day and the media was replaced with non-activated media for the remaining 6 days (Sava et al., Microcirculation, 2015, 22:54-67; Sterling et al., J Bio Chem, 1983, 258:14438-14444). TGF-β1 and bleomycin concentrations were based on reports consistent with activation of fibroblasts (Sava et al., Microcirculation, 2015, 22:54-67; Maroni and Davis, Bio Reprod, 2012, 87:127). Treatment with CCG-1423 (Sigma) was performed at day 0 for the full 7 days, and labeled as early treatment, or at day 7 and performed for 7 days, and labeled as late treatment. […]
Compound,"matrix density and collagen I content (nintedanib, TGF-β1-activated PC on decellularized healthy lung)","reduction in the number of PC expressing α-SMA (nintedanib, TGF-β1-activated PC on decellularized healthy lung, IHC, P<0.0001) [%]","elastic modulus of the scaffold (nintedanib, P=0.44 compared with control lung, P=0.001 compared with TGF-β1 without nintedanib)","ECM density and collagen I crosslinking (28 days of TGF-β1, Masson's trichrome and Picosirius red staining)","increase in the elastic modulus of the scaffold (28 days of TGF-β1, PC on decellularized healthy lung, P=0.001) [fold]"
COC(=O)c1ccc2c(c1)NC(=O)/C2=C(\Nc1ccc(N(C)C(=O)CN2CCN(C)CC2)cc1)c1ccccc1 [nintedanib],reduction,90.1,reversion of the elastic modulus to baseline levels,–,–
"TGF-β1: transforming growth factor (TGF)-β1, fibrotic activator, used at 1 ng/mL",–,–,–,increased,8.6

# From patent publication US20180298344A1, “Realistic Humanized Model of Disease Matrix Environment for Evaluation of Therapeutic Reversal or Cell Fate” (Yale University, priority 2017, published 2018)
